Reference: ChEMBL document CHEMBL1151012, “Synthesis and anti-pseudomonal activity of new 2-isocephems with a dihydroxypyridone moiety at C-7” (1994)
≈ marks a conversion by molar mass, not a printed value.

Columns and labels:
Escherichia coli = assay: In vitro antibacterial activity against Escherichia coli NIH JC-2 bacteria was determined; format: functional
Klebsiella pneumoniae = assay: In vitro antibacterial activity against Klebsiella pneumoniae NCTC-9632 bacteria was determined; format: functional
Mus musculus [1] = species on record: Mus musculus; assay: Protective effect on systemic infection in mice caused by clinically isolated Pseudomonas aeruginosa 67; format: functional
Mus musculus [2] = species on record: Mus musculus; assay: (§1) Protective effect on systemic infection in mice caused by clinically isolated Pseudomonas aeruginosa 58; format: functional
Pseudomonas aeruginosa [3] = assay: as §1; format: functional
Pseudomonas aeruginosa [4] = assay: In vitro antibacterial activity against CAZ resistant Pseudomonas aeruginosa 59 was determined; format: functional
Pseudomonas aeruginosa [5] = assay: In vitro antibacterial activity against AZT resistant Pseudomonas aeruginosa 47 was determined; format: functional
Pseudomonas aeruginosa [6] = assay: In vitro antibacterial activity against AZT resistant Pseudomonas aeruginosa 56 was determined; format: functional
Pseudomonas aeruginosa [7] = assay: In vitro antibacterial activity against AZT resistant Pseudomonas aeruginosa 59 was determined; format: functional
Pseudomonas aeruginosa [8] = assay: In vitro antibacterial activity against AZT resistant Pseudomonas aeruginosa 69 was determined; format: functional
Pseudomonas aeruginosa [9] = assay: In vitro antibacterial activity against CAZ resistant Pseudomonas aeruginosa 47 was determined; format: functional
Pseudomonas aeruginosa [10] = assay: In vitro antibacterial activity against CAZ resistant Pseudomonas aeruginosa 56 was determined; format: functional
Pseudomonas aeruginosa [11] = assay: In vitro antibacterial activity against CAZ resistant Pseudomonas aeruginosa 69 was determined; format: functional
Pseudomonas aeruginosa [12] = assay: In vitro antibacterial activity against IPM resistant Pseudomonas aeruginosa 47 was determined; format: functional
Pseudomonas aeruginosa [13] = assay: In vitro antibacterial activity against IPM resistant Pseudomonas aeruginosa 56 was determined; format: functional
Pseudomonas aeruginosa [14] = assay: In vitro antibacterial activity against IPM resistant Pseudomonas aeruginosa 59 was determined; format: functional
Pseudomonas aeruginosa [15] = assay: In vitro antibacterial activity against IPM resistant Pseudomonas aeruginosa 69 was determined; format: functional
Pseudomonas aeruginosa [16] = assay: In vitro antibacterial activity against Pseudomonas aeruginosa 47 was determined; format: functional
Pseudomonas aeruginosa [17] = assay: In vitro antibacterial activity against Pseudomonas aeruginosa 56 was determined; format: functional
Pseudomonas aeruginosa [18] = assay: In vitro antibacterial activity against Pseudomonas aeruginosa 59 was determined; format: functional
Pseudomonas aeruginosa [19] = assay: In vitro antibacterial activity against Pseudomonas aeruginosa 69 was determined; format: functional
Pseudomonas aeruginosa [20] = assay: In vitro antibacterial activity against Pseudomonas aeruginosa ATCC 10145 bacteria was determined; format: functional
Pseudomonas aeruginosa [21] = assay: In vitro antibacterial activity against Pseudomonas aeruginosa NCTC-10490 bacteria was determined; format: functional
Pseudomonas aeruginosa [22] = assay: Antibacterial activity against clinically isolated Pseudomonas aeruginosa 67

MIC (Escherichia coli) [µg/mL]	MIC (Klebsiella pneumoniae) [µg/mL]	MIC (Pseudomonas aeruginosa [20]) [µg/mL]	MIC (Pseudomonas aeruginosa [21]) [µg/mL]	Structure (SMILES)	ED50 (Mus musculus [1]) [mg/kg]	ED50 (Mus musculus [2]) [mg/kg]	MIC (Pseudomonas aeruginosa [22]) [µg/mL]	also measured
0.2 (≈ 0.313 µM)	≤ 0.025	0.1 (≈ 0.157 µM)	≤ 0.025	Nc1nc(/C(=N/OCc2cc(=O)c(O)cn2O)C(=O)N[C@@H]2C(=O)N3C(C(=O)O)=C(CSc4nncs4)SC[C@H]23)cs1 (stereo in doubt)				
0.05 (≈ 0.0735 µM)	≤ 0.025	≤ 0.025	≤ 0.025	Nc1nc(/C(=N/OCc2cc(=O)c(O)cn2O)C(=O)N[C@@H]2C(=O)N3C(C(=O)O)=C(CSc4nnnn4CC(=O)O)SC[C@H]23)cs1 (stereo in doubt)				
0.2 (≈ 0.313 µM)	0.1 (≈ 0.157 µM)	0.39 (≈ 0.611 µM)	≤ 0.025	Nc1nc(/C(=N/OCc2cc(=O)c(O)cn2O)C(=O)N[C@@H]2C(=O)N3C(C(=O)O)=C(CSc4cnns4)SC[C@H]23)cs1 (stereo in doubt)				

Structure (SMILES)	MIC (Escherichia coli) [µg/mL]	MIC (Klebsiella pneumoniae) [µg/mL]	MIC (Pseudomonas aeruginosa [20]) [µg/mL]	MIC (Pseudomonas aeruginosa [21]) [µg/mL]	ED50 (Mus musculus [1]) [mg/kg]	ED50 (Mus musculus [2]) [mg/kg]	MIC (Pseudomonas aeruginosa [22]) [µg/mL]	also measured
Cc1nc(SCC2=C(C(=O)O)N3C(=O)[C@@H](NC(=O)/C(=N\OCc4cc(=O)c(O)cn4O)c4csc(N)n4)[C@H]3CS2)sc1CC(=O)O	0.1 (≈ 0.141 µM)	0.05 (≈ 0.0704 µM)	0.05 (≈ 0.0704 µM)	≤ 0.025	21.8	3.2	0.1 (≈ 0.141 µM)	MIC (Pseudomonas aeruginosa [3]): 0.05 µg/mL (≈ 0.0704 µM); MIC (Pseudomonas aeruginosa [4]): 50 µg/mL (≈ 70.4 µM); MIC (Pseudomonas aeruginosa [5]): 25 µg/mL (≈ 35.2 µM); MIC (Pseudomonas aeruginosa [6]): 50 µg/mL (≈ 70.4 µM); MIC (Pseudomonas aeruginosa [7]): 25 µg/mL (≈ 35.2 µM); MIC (Pseudomonas aeruginosa [8]): 25 µg/mL (≈ 35.2 µM); MIC (Pseudomonas aeruginosa [9]): 50 µg/mL (≈ 70.4 µM); MIC (Pseudomonas aeruginosa [10]): 12.5 µg/mL (≈ 17.6 µM); MIC (Pseudomonas aeruginosa [11]): 50 µg/mL (≈ 70.4 µM); MIC (Pseudomonas aeruginosa [12]): 25 µg/mL (≈ 35.2 µM); MIC (Pseudomonas aeruginosa [13]): 25 µg/mL (≈ 35.2 µM); MIC (Pseudomonas aeruginosa [14]): 50 µg/mL (≈ 70.4 µM); MIC (Pseudomonas aeruginosa [15]): 50 µg/mL (≈ 70.4 µM); MIC (Pseudomonas aeruginosa [16]): 1.56 µg/mL (≈ 2.2 µM); MIC (Pseudomonas aeruginosa [17]): 1.56 µg/mL (≈ 2.2 µM); MIC (Pseudomonas aeruginosa [18]): 1.56 µg/mL (≈ 2.2 µM); MIC (Pseudomonas aeruginosa [19]): 3.13 µg/mL (≈ 4.41 µM)
CC(C)(O/N=C(\C(=O)N[C@@H]1C(=O)N2C(C(=O)[O-])=C(C[n+]3ccccc3)CS[C@H]12)c1csc(N)n1)C(=O)O [CEFTAZIDIME]	0.39 (≈ 0.714 µM)	0.05 (≈ 0.0915 µM)	1.56 (≈ 2.85 µM)	1.56 (≈ 2.85 µM)	> 100	31.7	1.56 (≈ 2.85 µM)	MIC (Mus musculus [2]): 3.13 µg/mL (≈ 5.73 µM)
